In PubChem BioAssay AID651816 (Broad Institute, 2012) one finds activation and AC40 data, which are given here for 40 compounds.

“And” between values parts separate entries of the source, which are not always exact repeats. Equal values may be shown once. The source made the active and inactive calls. How the calls were made is not given here.

System in one assay: not listed separately
Put plainly: V. cholerae BH1578 luminescence activators, luxS cqsA deficient, dose response confirmation, dry powder (AID 651816). The conditions noted are these: V. cholerae BH1578 luxCDABE luminescence, 6 h; at 80 µM (top of the series).
On to `CCn1nnnc1NCc1cccc(OC)c1`, for which the activation is 3.31% (inactive).

For the compound `O=C(Cc1ccccc1Cl)NC1CCCC1`, the activation is -0.009% (inactive).

In the case of `O=C(Cc1ccccc1OC(F)(F)F)NC1CCCC1`, the activation was -0.008% (inactive).

As for `c1ccc(-n2nnnc2NCc2ccc(N3CCCC3)cc2)cc1`, the activation was 0.051% (inactive).

Consider `CCn1nnnc1NCc1ccccc1N1CCCC1`, for which the activation was -0.011% (inactive).

For the compound `Cc1ccc(Cn2nnnc2NCc2ccc(N3CCCC3)cc2)cc1`, the activation was 0.022% (inactive).

For the compound `c1ccc(Cn2nnc(NCc3ccc(N4CCCC4)cc3)n2)cc1`, the activation is 0.04% (inactive).

For `CCc1ccccc1NCc1ccc(N2CCCC2)cc1`, the activation is 0.047% (inactive).

`CCn1nccc1/N=C/c1ccc(N2CCCC2)cc1`: the activation was 0.02% (inactive).

Turning to `CCCn1nnnc1NCc1ccccc1Cl`, the activation is -0.011% (inactive).

Take `O=C(Cc1cccc(OC(F)(F)F)c1)NC1CCCC1`: the activation is 0.099% (inactive).

With `Fc1ccc(Cn2nnnc2NCc2ccc(N3CCCC3)cc2)cc1`, the activation was 0.053% (inactive).

Regarding `CCn1nccc1NCc1ccc(N2CCCC2)cc1`, the activation was 0.056% (inactive).

As for `CS(=O)(=O)c1ccc(CC(=O)NC2CCCC2)cc1`, the activation is -0.008% (inactive).

As to `COc1ccc(CC(=O)NC2CCCC2)cc1`, the activation is 0.353% (inactive).

Turning to `O=C(NCc1ccc(-c2ccccc2)cc1)C1CCCC1`, the activation is 0.19% (inactive).

`O=C(Cc1ccccc1F)NC1CCCC1`: the activation was 0.028% (inactive).

For `Cc1ccccc1CC(=O)NC1CCCC1`, the activation was 0.039% (inactive).

Consider `CCn1nnc(NCc2ccc(C)cc2)n1`, for which the activation is 0.015% (inactive).

Turning to `O=C(Cc1ccccc1C(F)(F)F)NC1CCCC1`, the activation is -0.032% (inactive).

As for `O=C(Cc1cccc(F)c1)NC1CCCC1`, the activation is 0.665% (inactive).

Regarding `O=C(Cc1ccc(-c2ccccc2)cc1)NC1CCCCC1`, the activation is 7.99% (inactive).

As for `CCn1nnc(CCc2ccc(N3CCCC3)cc2)n1`, the activation was 0.033% (inactive).

`c1ccc(Cn2nnnc2NCc2ccc(N3CCCC3)cc2)cc1`: the activation was 0.055% (inactive).

The subject of a further assay is V. cholerae BH1578 luxCDABE luminescence, 6 h. The description is as above.
Conditions: not given
Turning to `CCCCn1nnnc1NCc1ccc(N2CCCC2)cc1`, the AC40 is 5660 nM.

In the case of `Cn1nnnc1NCc1ccc(N2CCCC2)cc1`, the AC40 is 956 nM.

`CC(C)NC(=O)Cc1ccc(-c2ccccc2)cc1`: the AC40 is 6210 nM.

For `CC(C)c1ccc(CNc2nnnn2C)cc1`, the AC40 was 3260 nM.

Turning to `CCn1nnnc1NCc1ccc(C(C)C)cc1`, the AC40 was 89.1 nM and 143 nM.

Regarding `CCn1nnnc1NCc1ccc(N2CCCCC2)cc1`, the AC40 was 121 nM.

As for `CCC(C)NC(=O)Cc1ccc(-c2ccccc2)cc1` (stereo not given), the AC40 is 4820 nM.

In the case of `O=C(Cc1ccc(-c2ccccc2)cc1)NC1CCOCC1`, the AC40 is 2890 nM.

`CCn1nnnc1NCc1cccc(N2CCCC2)c1`: the AC40 was 504 nM.

With `CCn1nnnc1CCc1ccc(N2CCCC2)cc1`, the AC40 was 1680 nM.

Take `CCCn1nnnc1NCc1ccc(N2CCCC2)cc1`: the AC40 was 60.8 nM.

On to `O=C(Cc1ccc(-c2ccccc2)cc1)NC1CCCC1`, for which the AC40 was 409 nM and 756 nM.

`CCn1nnnc1NCc1ccc(N2CCCC2)cc1`: the AC40 is 20.9 nM.

For `CCC(CC)NC(=O)Cc1ccc(-c2ccccc2)cc1`, the AC40 was 5370 nM.

On to `CCCn1nnnc1NCc1ccc(C(C)C)cc1`, for which the AC40 is 793 nM.

On to `O=C(Cc1ccc(-c2ccccc2)cc1)NC1CCC1`, for which the AC40 was 510 nM.
